The first data set deals with human hepatocytes. Kind of data set: Estimation of covalent binding of small molecules to proteins in hepatocytes (fCVB). It is filed as in vitro ADME. The following applies: binding of 3H- or 14C-labelled compound to cryopreserved human hepatocytes. How it is done: Estimation of Covalent Binding of Small Molecules to Proteins in Hepatocytes:
The assay is based on the modification of a published method (Day, S. H.; Mao, A.; White, R.; Schulz-Utermoehl, T.; Miller, R.; Beconi, M. G. (2005) A semi-automated method for measuring the potential for protein covalent binding in drug discovery. J. Pharmacol. Toxicol. Methods 52, 278-285.). Briefly, cryopreserved human hepatocytes are incubated in the presence of radiolabeled drug candidate in 24-well plates for a pre-determined period to allow sufficient turnover of the parent compound. Following the incubation period, samples are taken out and quenched by cold acetone in order to facilitate precipitation of proteins. […] After solubilization of proteins collected on filter papers, radioactive content and amount of protein is determined to give an estimate of pmol equivalent drug molecule bound per mg protein. In addition to assessing the extent of covalent binding, the turnover of the parent drug is quantified to give an estimate of fraction of metabolites leading to covalent binding (fCVB).
One aspect of the metabolic profile is the formation of reactive metabolites, where compounds of this invention in general are less prone to form such reactive metabolites. […] An fCVB value can then be calculated.
Melanin Concentrating Hormone Receptor 1 (MCHR1), sequence (Q99705 whole entry): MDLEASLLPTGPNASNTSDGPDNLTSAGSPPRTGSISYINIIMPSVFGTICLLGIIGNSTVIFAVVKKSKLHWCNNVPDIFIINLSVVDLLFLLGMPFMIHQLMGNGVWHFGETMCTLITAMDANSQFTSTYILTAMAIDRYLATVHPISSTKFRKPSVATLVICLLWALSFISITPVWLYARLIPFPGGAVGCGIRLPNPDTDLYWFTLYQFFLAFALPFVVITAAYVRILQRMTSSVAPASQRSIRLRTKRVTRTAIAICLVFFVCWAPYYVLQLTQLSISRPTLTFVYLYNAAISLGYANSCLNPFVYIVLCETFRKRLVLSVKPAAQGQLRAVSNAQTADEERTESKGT
Consider `COc1ccc(-c2nnc(C(=O)N3CC(Oc4ccc(CN5CC6(CCOC6)C5)cc4)C3)o2)cc1` [Example 5, (3-(4-(6-oxa-2-azaspiro[3.4]octan-2-ylmethyl)phenoxy)azetidin-1-yl)(5-(4-methoxyphenyl)-1,3,4-oxadiazol-2-yl)methanone], for which the “fCVB value (fraction of metabolites leading to covalent binding)” value is on record as 0.0069.

A further data set addresses Melanin Concentrating Hormone Receptor 1 (MCHR1) (Homo sapiens (Human), UniProt Q99705). Kind of data set: MCHR1 receptor activation assay (GTPγ35S). It is filed as biochemical.
Conditions: not given
Regarding `Cc1cc(OC2CN(C(=O)c3nnc(-c4ccccc4)o3)C2)ccc1CN1CC2(CCCO2)C1` [Example 11, (3-(4-(5-oxa-2-azaspiro[3.4]octan-2-ylmethyl)-3-methylphenoxy)azetidin-1-yl)(5-phenyl-1,3,4-oxadiazol-2-yl)methanone], it took 15 nM to reach half-maximal inhibition (IC50). In other words, the double-digit nanomolar range.

In the case of `O=C(c1nnc(-c2ccccc2)o1)N1CC(Oc2ccc(CN3CCCC34CCOC4)cc2)C1` (centres unmarked) [Example 15, (3-(4-(7-oxa-1-azaspiro[4.4]nonan-1-ylmethyl)phenoxy)azetidin-1-yl)(5-phenyl-1,3,4-oxadiazol-2-yl)methanone], half-maximal inhibition (IC50) was put at 58 nM. This IC50 lies about 3.9-fold higher than the previous one.

Take `Cc1cc(OC2CN(C(=O)c3nnc(-c4ccccc4)o3)C2)ccc1CN1CCC2(CCOC2)C1` (centres unmarked) [Example 10, (3-(4-(2-oxa-7-azaspiro[4.4]nonan-7-ylmethyl)-3-methylphenoxy)azetidin-1-yl)(5-phenyl-1,3,4-oxadiazol-2-yl)methanone]: the IC50 (usually the concentration needed to halve the response being measured) came to 18 nM.

Take `O=C(c1nnc(-c2ccccc2)o1)N1CC(Oc2ccc(CN3CCCC34COC4)cc2)C1` [Example 13, (3-(4-(2-oxa-5-azaspiro[3.4]octan-5-ylmethyl)phenoxy)azetidin-1-yl)(5-phenyl-1,3,4-oxadiazol-2-yl)methanone]: 70 nM corresponded to half-maximal inhibition (IC50).

The compound `COc1ccc(-c2nnc(C(=O)N3CC(Oc4ccc(CN5CCCC56CCOC6)cc4)C3)o2)cc1` (centres unmarked) [Example 14, (3-(4-(7-oxa-1-azaspiro[4.4]nonan-1-ylmethyl)phenoxy)azetidin-1-yl)(5-(4-methoxyphenyl)-1,3,4-oxadiazol-2-yl)methanone] came in with an IC50 of 23 nM. This IC50 lies about 3-fold lower than the previous one.

The compound `Cc1cc(OC2CN(C(=O)c3nnc(-c4ccccc4)o3)C2)ccc1CN1CC2(CCOC2)C1` [Example 9, (3-(4-(6-oxa-2-azaspiro[3.4]octan-2-ylmethyl)-3-methylphenoxy)azetidin-1-yl)(5-phenyl-1,3,4-oxadiazol-2-yl)methanone] registered an IC50 of 15 nM. Against the preceding compound, the IC50 is about 1.5-fold lower.

`COc1cc(CN2CCCC23COC3)ccc1OC1CN(C(=O)c2nnc(-c3ccccc3)o2)C1` [Example 17, (3-(4-(2-oxa-5-azaspiro[3.4]octan-5-ylmethyl)-2-methoxyphenoxy)azetidin-1-yl)(5-phenyl-1,3,4-oxadiazol-2-yl)methanone] had an IC50 of 420 nM.

As to `COc1cc(CN2CCCC23COC3)ccc1OC1CN(C(=O)c2nnc(-c3ccc(C(F)F)cc3)o2)C1` [Example 18, (3-(4-(2-oxa-5-azaspiro[3.4]octan-5-ylmethyl)-2-methoxyphenoxy)azetidin-1-yl)(5-(4-(difluoromethyl)phenyl)-1,3,4-oxadiazol-2-yl)methanone], inhibition was half-maximal at 150 nM (IC50).

The compound `COc1ccc(-c2nnc(C(=O)N3CC(Oc4ccc(CN5CC6(CCOC6)C5)cc4)C3)o2)cc1` [Example 5, (3-(4-(6-oxa-2-azaspiro[3.4]octan-2-ylmethyl)phenoxy)azetidin-1-yl)(5-(4-methoxyphenyl)-1,3,4-oxadiazol-2-yl)methanone] came in with an IC50 of 19 nM.

`O=C(c1nnc(-c2ccccc2)o1)N1CC(Oc2ccc(CN3CCC4(CCOC4)C3)cc2)C1` (centres unmarked) [Example 6, (3-(4-(2-oxa-7-azaspiro[4.4]nonan-7-ylmethyl)phenoxy)azetidin-1-yl)(5-phenyl-1,3,4-oxadiazol-2-yl)methanone]: 19 nM corresponded to half-maximal inhibition (IC50).

`COc1cc(OC2CN(C(=O)c3nnc(-c4ccccc4)o3)C2)ccc1CN1CCCC12COC2` [Example 16, (3-(4-(2-oxa-5-azaspiro[3.4]octan-5-ylmethyl)-3-methoxyphenoxy)azetidin-1-yl)(5-phenyl-1,3,4-oxadiazol-2-yl)methanone] registered an IC50 of 34 nM.

For `O=C(c1nnc(-c2ccccc2)o1)N1CC(Oc2ccc(CN3CCC4(CCCO4)C3)cc2)C1` (centres unmarked) [Example 22, (3-(4-(1-Oxa-7-azaspiro[4.4]nonan-7-ylmethyl)phenoxy)azetidin-1-yl)(5-phenyl-1,3,4-oxadiazol-2-yl)methanone], the IC50 worked out at 23 nM.

As for `COc1cc(OC2CN(C(=O)c3nnc(-c4ccc(C(F)F)cc4)o3)C2)ccc1CN1CCCC12COC2` [Example 19, (3-(4-(2-oxa-5-azaspiro[3.4]octan-5-ylmethyl)-3-methoxyphenoxy)azetidin-1-yl)(5-(4-(difluoromethyl)phenyl)-1,3,4-oxadiazol-2-yl)methanone], half-maximal inhibition (IC50) was put at 38 nM.

Values taken from patent US8685958B2, “Therapeutic agents” (AstraZeneca AB, priority 2011, dated 2014).
